According to PMC10649961, “Novel Mitochondria-Targeted Amphiphilic Aminophosphonium Salts and Lipids Nanoparticles: Synthesis, Antitumor Activity and Toxicity” (Nanomaterials, 2023):
Where two headings read alike, the source gives them in different places.

Key:
SK-OV-3 [1] = assay: cells; conditions: Homo sapiens, SK-OV-3, 48 h, read-out: Cytotoxic Effects (IC50)
M-HeLa [2] = assay: cells; conditions: Homo sapiens, 48 h, read-out: Cytotoxic Effects (IC50)
Hep G2 [3] = assay: cells; conditions: Homo sapiens, HepG2, 48 h, read-out: Cytotoxic Effects (IC50)
A549 [4] = conditions: reference normal cell line not marked at the place (ns cells)
HuTu 80 [5] = conditions: calculated relative to the cell line Chang liver (b)
T98G [6] = assay: cells; conditions: Homo sapiens, 48 h, read-out: Cytotoxic Effects (IC50)
[7] = test system: Bacillus cereus ATCC 10702 NCTC 8035; assay: Antimicrobial activity, serial microdilutions, Bc; type: cell-based; parameters: key to Minimum bactericidal and fungicidal concentrations (MBC, MFC): – means non-active; conditions: for MIC / Minimum bactericidal and fungicidal concentrations (MBC, MFC): Bc; for MIC: read-out: Minimum Inhibitory Concentration (MIC)
How it was run: (§1)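 Broth microdilution, triplicate; media: Mueller-Hinton (bacteria), Sabouraud (C. albicans). MRSA-1 = patient isolate, chronic tonsillitis.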

Hep G2 [8] = conditions: calculated relative to the cell line Chang liver (b)
MCF-7 [9] = assay: cells; conditions: Homo sapiens, MCF7, 48 h, read-out: Cytotoxic Effects (IC50)
[10] = test system: Staphylococcus aureus ATCC 6538 P FDA 209P; assay: Antimicrobial activity, serial microdilutions, Sa; type: cell-based; conditions: Staphylococcus aureus; for MIC: read-out: Minimum Inhibitory Concentration (MIC); for MBC: read-out: Minimum bactericidal and fungicidal concentrations (MBC, MFC)
How it was run: (§2)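 Compounds were serially diluted in broth: Mueller-Hinton for the bacterial strains, Sabouraud for the yeast. Each determination was done in triplicate.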

PANC-1 [11] = assay: cells; conditions: Homo sapiens, PANC-1, 48 h, read-out: Cytotoxic Effects (IC50)
PANC-1 [12] = conditions: calculated relative to the cell line Chang liver (b)
MRSA-1 = assay: Antimicrobial activity, serial microdilutions, MRSA-1; type: cell-based, S. aureus; conditions: Staphylococcus aureus; for MIC: read-out: Minimum Inhibitory Concentration (MIC); for MBC: read-out: Minimum bactericidal and fungicidal concentrations (MBC, MFC)
How it was run: as §1

[13] = test system: Candida albicans ATCC 10231; assay: Antimicrobial activity, serial microdilutions, Ca; type: cell-based; parameters: key to Minimum Inhibitory Concentration (MIC) / Minimum bactericidal and fungicidal concentrations (MBC, MFC): – means non-active; conditions: for Minimum Inhibitory Concentration (MIC) / Minimum bactericidal and fungicidal concentrations (MBC, MFC): Ca
How it was run: as §1

MRSA-2 = assay: Antimicrobial activity, serial microdilutions, MRSA-2; type: cell-based, S. aureus; conditions: Staphylococcus aureus; for MIC: read-out: Minimum Inhibitory Concentration (MIC); for MBC: read-out: Minimum bactericidal and fungicidal concentrations (MBC, MFC)
How it was run: as §2

HuTu 80 [14] = assay: cells; conditions: Homo sapiens, HuTu80, 48 h, read-out: Cytotoxic Effects (IC50)
[15] = test system: Escherichia coli ATCC 25922; assay: Antimicrobial activity, serial microdilutions, Ec; type: cell-based; parameters: key to Minimum Inhibitory Concentration (MIC) / Minimum bactericidal and fungicidal concentrations (MBC, MFC): – means non-active; conditions: for MBC: ATCC25922, read-out: Minimum bactericidal and fungicidal concentrations (MBC, MFC)
How it was run: as §1

M-HeLa [16] = conditions: calculated relative to the cell line Chang liver (b)
MCF-7 [17] = conditions: calculated relative to the cell line Chang liver (b)
DU-145 [18] = test system: DU-145
[19] = test system: Pseudomonas aeruginosa ATCC 9027; assay: Antimicrobial activity, serial microdilutions, Pa; type: cell-based; parameters: key to Minimum Inhibitory Concentration (MIC) / Minimum bactericidal and fungicidal concentrations (MBC, MFC): – means non-active; conditions: for MIC: ATCC9027, read-out: Minimum Inhibitory Concentration (MIC)
How it was run: as §1

T98G [20] = test system: T98G
SK-OV-3 [21] = test system: SK-OV-3
A549 [22] = assay: cells; conditions: Homo sapiens, A549, 48 h, read-out: Cytotoxic Effects (IC50)
DU-145 [23] = assay: cells; conditions: Homo sapiens, DU-145, 48 h, read-out: Cytotoxic Effects (IC50), DU-145, MTT assay, 48 h
[24] = test system: Enterococcus faecalis ATCC 29212; assay: Antimicrobial activity, serial microdilutions, Ef; type: cell-based; parameters: key to Minimum Inhibitory Concentration (MIC) / Minimum bactericidal and fungicidal concentrations (MBC, MFC): – means non-active; conditions: for MIC: ATCC29212, read-out: Minimum Inhibitory Concentration (MIC)
How it was run: as §2

[25] = reference normal cell line not marked at the place (ns cells)
[26] = calculated relative to the cell line Chang liver (b)

`CCCCCCCC[P+](N(CC)CC)(N(CC)CC)N(CC)CC` [4b, Tris(diethylamino)(octyl)phosphonium iodide] was tested, and the IC50 (SK-OV-3 [1]) was 26300 ± 1800 nM, the IC50 (M-HeLa [2]) was 1800 ± 100 nM and the IC50 (Hep G2 [3]) was 2900 ± 200 nM. The “selectivity index (SI)” value (A549 [4]) was “ns (ns—no selectivity)”, the “selectivity index (SI)” value (HuTu 80 [5]) was 1.3 and the IC50 (T98G [6]) was 5900 ± 400 nM. The MIC ([7]; Bacillus cereus) was 7.8 ± 0.7 µM, the “Minimum bactericidal and fungicidal concentrations (MBC, MFC)” value [7] was “–” and the “selectivity index (SI)” value (Hep G2 [8]) was 1.4. It also gave an IC50 (MCF-7 [9]) of 2900 ± 200 nM, an MIC [10] of 15.6 ± 1.3 µM and an MBC [10] of 31.3 ± 2.3 µM. The IC50 (PANC-1 [11]) was 2300 ± 100 nM, the “selectivity index (SI)” value (PANC-1 [12]) was 1.7 and the MIC (MRSA-1) was 15.6 ± 0.3 µM. For the same compound, the MBC (MRSA-1) was 500 ± 47 µM, the “Minimum Inhibitory Concentration (MIC)” value [13] was “–” and the “Minimum bactericidal and fungicidal concentrations (MBC, MFC)” value [13] was “–”. The MIC (MRSA-2) was 15.6 ± 1.2 µM, the MBC (MRSA-2) was 125 ± 9 µM and the IC50 (HuTu 80 [14]) was 3200 ± 200 nM. The “Minimum Inhibitory Concentration (MIC)” value [15] was “–”, the “Minimum bactericidal and fungicidal concentrations (MBC, MFC)” value [15] was “–” and the “selectivity index (SI)” value (M-HeLa [16]) was 2.2. The “selectivity index (SI)” value (MCF-7 [17]) was 1.4, the “selectivity index (SI)” value (DU-145 [18]; [25]) was “ns (ns—no selectivity)” and the “Minimum Inhibitory Concentration (MIC)” value [19] was “–”. For the same compound, the “Minimum bactericidal and fungicidal concentrations (MBC, MFC)” value [19] was “–”, the “selectivity index (SI)” value (T98G [20]; [25]) was “ns (ns—no selectivity)” and the “selectivity index (SI)” value (SK-OV-3 [21]; [25]) was “ns (ns—no selectivity)”. For the same compound, the IC50 (A549 [22]) was 15400 ± 1200 nM, the IC50 (DU-145 [23]) was 4200 ± 300 nM and the “Minimum bactericidal and fungicidal concentrations (MBC, MFC)” value [24] was “–”. For the same compound, the MIC ([24]; Enterococcus faecalis) was 250 ± 19 µM and the “selectivity index (SI)” value (PC3; [25]) was “ns (ns—no selectivity)”.
`CCCCCCCCCC[P+](N(CC)CC)(N(CC)CC)N(CC)CC` [4d, Decyltris(diethylamino)phosphonium iodide] gave an IC50 (SK-OV-3 [1]) of 10000 ± 900 nM, an IC50 (M-HeLa [2]) of 1700 ± 100 nM and an IC50 (Hep G2 [3]) of 2300 ± 100 nM. For the same compound, the “selectivity index (SI)” value (A549 [4]) was “ns (ns—no selectivity)”, the “selectivity index (SI)” value (HuTu 80 [5]) was 4.3 and the IC50 (T98G [6]) was 1800 ± 200 nM. For the same compound, the MIC ([7]; Bacillus cereus) was 0.9 ± 0.07 µM, the MBC ([7]; Bacillus cereus, read-out: Minimum bactericidal and fungicidal concentrations (MBC, MFC)) was 250 ± 22 µM and the “selectivity index (SI)” value (Hep G2 [8]) was 5.2. The IC50 (MCF-7 [9]) was 2100 ± 200 nM, the MIC [10] was 1.9 ± 0.1 µM and the MBC [10] was 31.3 ± 2.5 µM. The IC50 (PANC-1 [11]) was 1600 ± 100 nM, the “selectivity index (SI)” value (PANC-1 [12]) was 7.5 and the MIC (MRSA-1) was 0.9 ± 0.07 µM. The MBC (MRSA-1) was 62.5 ± 5.4 µM, the MIC ([13]; Candida albicans, ATCC10231, read-out: Minimum Inhibitory Concentration (MIC)) was 125 ± 11 µM and the MBC ([13]; Candida albicans, ATCC10231, read-out: Minimum bactericidal and fungicidal concentrations (MBC, MFC)) was 250 ± 18 µM. The MIC (MRSA-2) was 1.9 ± 0.1 µM, the MBC (MRSA-2) was 250 ± 18 µM and the IC50 (HuTu 80 [14]) was 2800 ± 200 nM. The MIC ([15]; Escherichia coli, ATCC25922, read-out: Minimum Inhibitory Concentration (MIC)) was 125 ± 9 µM, the MBC ([15]; Escherichia coli) was 250 ± 19 µM and the “selectivity index (SI)” value (M-HeLa [16]) was 7.1. For the same compound, the “selectivity index (SI)” value (MCF-7 [17]) was 5.7, the “selectivity index (SI)” value (DU-145 [18]; [26]) was 10 and the MIC ([19]; Pseudomonas aeruginosa) was 500 ± 47 µM. For the same compound, the MBC ([19]; Pseudomonas aeruginosa, ATCC9027, read-out: Minimum bactericidal and fungicidal concentrations (MBC, MFC)) was 500 ± 48 µM, the “selectivity index (SI)” value (T98G [20]; [26]) was 6.7 and the “selectivity index (SI)” value (SK-OV-3 [21]; [26]) was 1.2. It also gave an IC50 (A549 [22]) of 18400 ± 1300 nM, an IC50 (DU-145 [23]) of 1200 ± 100 nM and an MIC ([24]; Enterococcus faecalis) of 15.6 ± 1.3 µM. The MBC ([24]; Enterococcus faecalis, ATCC29212, read-out: Minimum bactericidal and fungicidal concentrations (MBC, MFC)) was over 500 µM and the “selectivity index (SI)” value (PC3; [26]) was 1.6.
`CCCCCCCC[P+](c1ccccc1)(N(CC)CC)N(CC)CC` [5b, Bis(diethylamino)(octyl)(phenyl)phosphonium iodide] was tested, and the IC50 (SK-OV-3 [1]) was 25600 ± 1800 nM, the IC50 (M-HeLa [2]) was 1800 ± 100 nM and the IC50 (Hep G2 [3]) was 2900 ± 300 nM. For the same compound, the “selectivity index (SI)” value (A549 [4]) was “ns (ns—no selectivity)”, the “selectivity index (SI)” value (HuTu 80 [5]) was 1.0 and the IC50 (T98G [6]) was 4300 ± 300 nM. For the same compound, the MIC ([7]; Bacillus cereus) was 7.8 ± 0.6 µM, the “Minimum bactericidal and fungicidal concentrations (MBC, MFC)” value [7] was “–” and the “selectivity index (SI)” value (Hep G2 [8]) was 1.4. It also gave an IC50 (MCF-7 [9]) of 2600 ± 200 nM, an MIC [10] of 7.8 ± 0.6 µM and an MBC [10] of 250 ± 20 µM. The IC50 (PANC-1 [11]) was 1200 ± 100 nM, the “selectivity index (SI)” value (PANC-1 [12]) was 3.3 and the MIC (MRSA-1) was 15.6 ± 1.2 µM. For the same compound, the MBC (MRSA-1) was 500 ± 48 µM, the “Minimum Inhibitory Concentration (MIC)” value [13] was “–” and the “Minimum bactericidal and fungicidal concentrations (MBC, MFC)” value [13] was “–”. For the same compound, the MIC (MRSA-2) was 15.6 ± 1.2 µM, the MBC (MRSA-2) was 250 ± 20 µM and the IC50 (HuTu 80 [14]) was 4000 ± 300 nM. The “Minimum Inhibitory Concentration (MIC)” value [15] was “–”, the MBC ([15]; Escherichia coli) was 500 ± 49 µM and the “selectivity index (SI)” value (M-HeLa [16]) was 2.2. The “selectivity index (SI)” value (MCF-7 [17]) was 1.5, the “selectivity index (SI)” value (DU-145 [18]; [26]) was 2.0 and the “Minimum bactericidal and fungicidal concentrations (MBC, MFC)” value [19] was “–”. For the same compound, the MIC ([19]; Pseudomonas aeruginosa) was 500 ± 46 µM, the “selectivity index (SI)” value (T98G [20]; [26]) was 1.0 and the “selectivity index (SI)” value (SK-OV-3 [21]; [25]) was “ns (ns—no selectivity)”. The IC50 (A549 [22]) was 20000 ± 1600 nM, the IC50 (DU-145 [23]) was 2000 ± 100 nM and the “Minimum bactericidal and fungicidal concentrations (MBC, MFC)” value [24] was “–”. For the same compound, the MIC ([24]; Enterococcus faecalis) was 125 ± 11 µM and the “selectivity index (SI)” value (PC3; [25]) was “ns (ns—no selectivity)”.
